Results reported in patent publication US8178535B2, “Substituted sulfonamide compounds having bradykinin 1 receptor activity and use thereof as medicaments” (Gruenenthal GmbH, priority 2008, dated 2012).

Legend:
[1] = target: T1, human B1R receptor (hB1R) (Homo sapiens, UniProt P46663); assay: FLIPR Ca2+ assay (Fluo-4) on CHO K1 cells stably transfected with the human B1R gene; type: cell-based; details: CHO-K1; test substance 10 μM; agonist Lys-Des-Arg9-bradykinin 0.5 nM; % inhibition compared to the maximum achievable inhibition
T1 construct: host or cells: CHO K1 cells
T1 sequence (P46663 1-353): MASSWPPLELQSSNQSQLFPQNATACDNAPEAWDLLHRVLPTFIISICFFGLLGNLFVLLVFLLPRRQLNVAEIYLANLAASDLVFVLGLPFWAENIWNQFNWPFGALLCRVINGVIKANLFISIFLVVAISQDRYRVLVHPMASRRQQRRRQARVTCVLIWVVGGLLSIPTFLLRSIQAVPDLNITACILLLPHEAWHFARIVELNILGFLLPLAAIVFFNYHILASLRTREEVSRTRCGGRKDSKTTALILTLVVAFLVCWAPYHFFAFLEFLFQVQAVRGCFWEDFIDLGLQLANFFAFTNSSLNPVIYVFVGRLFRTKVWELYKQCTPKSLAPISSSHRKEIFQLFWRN
Protocol: (§1) The agonistic or antagonistic action of compounds can be quantified on the bradykinin 1 receptor (B1R) of humans and rats with ectopically expressing cell lines (CHO K1 cells) and with the aid of a Ca^2+-sensitive dye (Fluo-4) in the fluorescent imaging plate reader (FLIPR). The figure in percent activation refers to the Ca^2+ signal after addition of Lys-Des-Arg^9-bradykinin (0.5 nM) and Des-Arg^9-bradykinin (100 nM). Antagonists result in a suppression of the Ca^2+ inflow after the addition of the agonist. Percent inhibition values are given in comparison to the maximum achievable inhibition. The compounds according to the invention act, for example, on the B1R which is implicated in various disease states. This means that the compounds of the invention are useful as pharmaceutically active substances in medicaments for the treatment and/or inhibition of such disease states.
(§2) The agonistic or antagonistic action of substances can be determined on the bradykinin 1 receptor (B1R) of humans and rats by means of the following assay. According to this assay the Ca^2+ inflow through the channel is quantified by means of a Ca^2+-sensitive dye (Fluo-4 type, Molecular Probes Europe BV, Leiden, Netherlands), in a Fluorescent Imaging Plate Reader (FLIPR, Molecular Devices, Sunnyvale, USA).
(§3) Chinese hamster ovary cells (CHO K1 cells) are used, which are stably transfected with the human B1R gene (hB1R cells, Euroscreen s.a., Gosselies, Belgium), or with the B1R gene of rats (rB1R cells, Axxam, Milan, Italy). For functional investigations these cells are plated out on black 96-well plates with a clear floor (BD Biosciences, Heidelberg, Germany) in a density of 20,000/25,000 cells/well. The cells are incubated overnight with 10 vol. % FBS (foetal bovine serum, Gibco Invitrogen GmbH, Karlsruhe, Germany) at 37° C. and 5% CO2 in a culture medium (hB1R cells: Nutrient Mixture Ham's F12, Gibco Invitrogen GmbH, Karlsruhe, Germany; rB1R cells: D-MEM/F12, Gibco Invitrogen GmbH, Karlsruhe, Germany). The following day the cells are charged for 60 minutes at 37° C. with 2.13 μM Fluo-4 (Molecular Probes Europe BV, Leiden, Netherlands) in HBSS buffer (Hank's buffered saline solution, Gibco Invitrogen GmbH, Karlsruhe, Germany) together with […] (Sigma-Aldrich, Taufkirchen, Germany) and 10 mM HEPES (Sigma-Aldrich, Taufkirchen, Germany).
(§4) The plates are then washed twice with HBSS buffer and HBSS buffer is added which additionally contains 0.1% BSA (bovine serum albumin; Sigma-Aldrich, Taufkirchen, Germany), 5.6 mM glucose and 0.05% gelatin (Merck KGaA, Darmstadt, Germany). After further incubation for 20 minutes at room temperature the plates are used for the Ca^2+ measurement in the FLIPR. The Ca^2+-dependent fluorescence is measured both before and after the addition of substances (λex=488 nm, λem=540 nm). The quantification is carried out by measuring the highest fluorescence intensity (FC, fluorescence counts) over time.
(§5) The FLIPR protocol consists of two substance additions. First, test substances (10 μM) are pipetted onto the cells and the Ca^2+ inflow is compared with the control (hB1R: Lys-Des-Arg9-bradykinin 0.5 nM; rB1R: Des-Arg9-bradykinin 100 nM). This gives the result in percent activation referred to the Ca^2+ signal after addition of Lys-Des-Arg9-bradykinin (0.5 nM), bzw. Des-Arg9-bradykinin (100 nM). After 10 minutes' incubation 0.5 nM Lys-Des-Arg9-bradykinin (hB1R) and 100 nM Des-Arg^9-bradykinin (rB1R) are applied and the inflow of Ca^2+ is likewise determined. Antagonists lead to a suppression of the Ca^2+ inflow. The percent inhibition compared to the maximum achievable inhibition is calculated. The compounds show a good activity on both human and rat receptors.
(§6) The agonistic and antagonistic action of the compounds according to the invention on the bradykinin 1 receptor (B1R) of humans and rats were determined as described above. Antagonists lead to a suppression of the Ca^2+ inflow. […]

[2] = target: T2, B1R receptor of rats (rB1R) (Rattus norvegicus, UniProt P97583); assay: FLIPR Ca2+ assay (Fluo-4) on CHO K1 cells stably transfected with the B1R gene of rats; type: cell-based; details: CHO-K1; test substance 10 μM; agonist Des-Arg9-bradykinin 100 nM; % inhibition compared to the maximum achievable inhibition
T2 construct: host or cells: CHO K1 cells
T2 sequence (P97583 1-337): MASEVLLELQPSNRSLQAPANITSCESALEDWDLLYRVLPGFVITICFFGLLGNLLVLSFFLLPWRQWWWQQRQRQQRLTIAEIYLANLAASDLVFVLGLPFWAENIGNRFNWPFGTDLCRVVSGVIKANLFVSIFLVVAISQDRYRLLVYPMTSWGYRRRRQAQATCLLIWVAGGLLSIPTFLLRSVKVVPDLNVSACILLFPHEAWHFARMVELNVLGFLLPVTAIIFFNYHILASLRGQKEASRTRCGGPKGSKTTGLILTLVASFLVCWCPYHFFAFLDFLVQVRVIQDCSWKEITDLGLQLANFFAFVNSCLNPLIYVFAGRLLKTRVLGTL
Protocol: as §1, §2, §3, §4, §5, §6

Row | Structure (SMILES) | inhibition at 10 µM [1] | inhibition at 10 µM [2]
1 | COc1cc(C)c(S(=O)(=O)N2CCCCC2COCC(=O)N2CCn3cnnc3C2)c(C)c1 (centres unmarked) [(1), 1-(5,6-dihydro-[1,2,4]triazolo[4,3-a]pyrazin-7(8H)-yl)-2-((1-(4-methoxy-2,6-dimethylphenylsulfonyl)piperidin-2-yl)methoxy)ethanone] | 56% | 100%
2 | COc1cc(C)c(S(=O)(=O)N2CCCCC2COCC(=O)N2CCn3cc(CN4CCCCC4)nc3C2)c(C)c1 (centres unmarked) [(2), 2-((1-(4-methoxy-2,6-dimethylphenylsulfonyl)piperidin-2-yl)methoxy)-1-(2-(piperidin-1-ylmethyl)-5,6-dihydroimidazo[1,2-a]pyrazin-7(8H)-yl)ethanone] | 105% | 106%
3 | COc1cc(C)c(S(=O)(=O)N2CCCCC2COCC(=O)N2CCn3c(CN4CCN(C)CC4)ccc3C2)c(C)c1 (centres unmarked) [(4), 2-((1-(4-methoxy-2,6-dimethylphenylsulfonyl)piperidin-2-yl)methoxy)-1-(6-((4-methylpiperazin-1-yl)methyl)-3,4-dihydropyrrolo[1,2-a]pyrazin-2(1H)-yl)ethanone] | 105% | 101%
4 | Cc1cc(S(=O)(=O)N2CCCCC2CCC(=O)N2CCn3c(CN4CCN(C)CC4)ccc3C2)c(C)cc1Cl (centres unmarked) [(5), 3-(1-(4-chloro-2,5-dimethylphenylsulfonyl)piperidin-2-yl)-1-(6-((4-methyl-piperazin-1-yl)methyl)-3,4-dihydropyrrolo[1,2-a]pyrazin-2(1H)-yl)propan-1-one] | 100% | 51%
5 | COc1cc(C)c(S(=O)(=O)N2CCCCC2COCC(=O)N2CCn3c(CN4CCOCC4)ccc3C2)c(C)c1 (centres unmarked) [(6), 2-((1-(4-methoxy-2,6-dimethylphenylsulfonyl)piperidin-2-yl)methoxy)-1-(6-(morpholinomethyl)-3,4-dihydropyrrolo[1,2-a]pyrazin-2(1H)-yl)ethanone] | 100% | 101%
6 | CN1CCN(Cc2ccc3n2CCN(C(=O)CC2CCCCN2S(=O)(=O)c2cccc(C(F)(F)F)c2)C3)CC1 (centres unmarked) [(7), 1-(6-((4-methylpiperazin-1-yl)methyl)-3,4-dihydropyrrolo[1,2-a]pyrazin-2(1H)-yl)-2-(1-(3-(trifluoromethyl)phenylsulfonyl)piperidin-2-yl)ethanone] | 87% | 52%
7 | O=C(CC1CCCCN1S(=O)(=O)c1cccc(C(F)(F)F)c1)N1CCn2c(CN3CCCC3)ccc2C1 (centres unmarked) [(8), 1-(6-(pyrrolidin-1-ylmethyl)-3,4-dihydropyrrolo[1,2-a]pyrazin-2(1H)-yl)-2-(1-(3-(trifluoromethyl)phenylsulfonyl)piperidin-2-yl)ethanone] | 99% | 96%
8 | Cc1cc(S(=O)(=O)N2CCCCC2CCC(=O)N2CCn3c(CN4CCCC4)ccc3C2)c(C)cc1Cl (centres unmarked) [(9), 3-(1-(4-chloro-2,5-dimethylphenylsulfonyl)piperidin-2-yl)-1-(6-(pyrrolidin-1-ylmethyl)-3,4-dihydropyrrolo[1,2-a]pyrazin-2(1H)-yl)propan-1-one] | 104% | 48%
9 | O=C(COCC1CCc2ccccc2N1S(=O)(=O)c1ccc(Cl)c(Cl)c1)N1CCn2c(CN3CCCC3)ccc2C1 (centres unmarked) [(10), 2-((1-(3,4-dichlorophenylsulfonyl)-1,2,3,4-tetrahydroquinolin-2-yl)methoxy)-1-(6-(pyrrolidin-1-ylmethyl)-3,4-dihydropyrrolo[1,2-a]pyrazin-2(1H)-yl)ethanone] | 101% | 91%
10 | CN1CCN(Cc2ccc3n2CCN(C(=O)COCC2CCc4ccccc4N2S(=O)(=O)c2ccc(Cl)c(Cl)c2)C3)CC1 (centres unmarked) [(11), 2-((1-(3,4-dichlorophenylsulfonyl)-1,2,3,4-tetrahydroquinolin-2-yl)methoxy)-1-(6-((4-methylpiperazin-1-yl)methyl)-3,4-dihydropyrrolo[1,2-a]pyrazin-2(1H)-yl)ethanone] | 100% | 56%
11 | Cc1cc(S(=O)(=O)N2CCCCC2CCC(=O)N2CCn3c(CN4CCOCC4)ccc3C2)c(C)cc1Cl (centres unmarked) [(12), 3-(1-(4-chloro-2,5-dimethylphenylsulfonyl)piperidin-2-yl)-1-(6-(morpholino-methyl)-3,4-dihydropyrrolo[1,2-a]pyrazin-2(1H)-yl)propan-1-one] | 103% | 57%
12 | COc1cc(C)c(S(=O)(=O)N2CCCCC2COCC(=O)N2CCn3c(CN4CCCC4)ccc3C2)c(C)c1 (centres unmarked) [(13), 2-((1-(4-methoxy-2,6-dimethylphenylsulfonyl)piperidin-2-yl)methoxy)-1-(6-(pyrrolidin-1-ylmethyl)-3,4-dihydropyrrolo[1,2-a]pyrazin-2(1H)-yl)ethanone] | 102% | 102%
13 | COc1cc(C)c(S(=O)(=O)N2CCCCC2COCC(=O)N2CCn3c(CCCN4CCN(C)CC4)ccc3C2)c(C)c1 (centres unmarked) [(14), 2-((1-(4-methoxy-2,6-dimethylphenylsulfonyl)piperidin-2-yl)methoxy)-1-(6-(3-(4-methylpiperazin-1-yl)propyl)-3,4-dihydropyrrolo[1,2-a]pyrazin-2(1H)-yl)ethanone] | 97% | 99%
14 | CN1CCN(CCCc2ccc3n2CCN(C(=O)CC2CCCCN2S(=O)(=O)c2cccc(C(F)(F)F)c2)C3)CC1 (centres unmarked) [(15), 1-(6-(3-(4-methylpiperazin-1-yl)propyl)-3,4-dihydropyrrolo[1,2-a]pyrazin-2(1H)-yl)-2-(1-(3-(trifluoromethyl)phenylsulfonyl)piperidin-2-yl)ethanone] | 46% | 100%
15 | COc1cc(C)c(S(=O)(=O)N2CCCCC2COCC(=O)N2CCn3c(CN4CCCCC4)nnc3C2)c(C)c1 (centres unmarked) [(87), 2-((1-(4-Methoxy-2,6-dimethylphenylsulfonyl)piperidin-2-yl)methoxy)-1-(3-(piperidin-1-ylmethyl)-5,6-dihydro-[1,2,4]triazolo[4,3-a]pyrazin-7(8H)-yl)ethanone] | – | 103%
